# Experimental data taken from patent US10227324B2 (Shanghai Haiyan Pharmaceutical Technology Co., Ltd., priority 2014, dated 2019).
# System: NIH3T3 cells
# Assay: Cytotoxicity by MTT assay, NIH3T3
# Format: cell-based
# Details: Mus musculus, NIH3T3, 72 h, cytotoxicity class, read-out: NIH3T3 cell (IC50/nM)
row,Structure (SMILES),IC50 [nM]
1,CS(=O)(=O)C1(c2cc(-c3cnc(N)cc3C(F)(F)F)nc(N3CCOCC3)n2)CCCC1 [Compound S-10],1000 to 3000
2,CC(C)S(=O)(=O)C1(c2cc(-c3cnc(N)cc3C(F)(F)F)nc(N3CCOCC3)n2)CCC1 [Compound S-19],1000 to 3000
3,Nc1cc(C(F)(F)F)c(-c2cc(C3(S(=O)(=O)c4ccccc4)CCC3)nc(N3CCOCC3)n2)cn1 [Compound S-20],1000 to 3000

# System: not listed separately
# Assay: Metabolism stability assay in liver microsomes
# Format: in vitro ADME, mouse
# Details: liver microsomal metabolism in mice
# Method: Buffer A: 1 L solution of 100 mM potassium dihydrogen phosphate containing 1 mM EDTA (Sigma, V900157-100G) was prepared. Buffer B: 1 L solution of 100 mM dipotassium hydrogen phosphate containing 1 mM EDTA was prepared. Buffer C: 700 mL of buffer B was taken out and titrated with buffer A to pH 7.4.
# 2.1 10 μl of 10 mM compound to be tested and 10 μl of 10 mM ketanserin were taken out and 190 μl of pure acetonitrile was added to each of them to prepare 500 μM compound to be tested and ketanserin, respectively.
# 2.2 20 μl (20 mg/mL) of liver microsomes (XENOTECH, H0610) stock solution was added to 513.4 μl of buffer C on wet ice. 0.75 mg/mL liver microsomal solution was obtained.
# 2.3 1.5 μl of each of the above-mentioned compound to be tested and ketanserin solution was added to 498.5 μl of liver microsomal solution (0.7 5 mg/mL) respectively on wet ice. 1.5 μM mixed solution of compound to be tested and 1.5 μM mixed solution of ketanserin were obtained.
# 2.4 At the time points 0, 5, 15, 30, 45, and 60 min, 30 μl of the mixed solution of compound to be tested and 30 μl of the mixed solution of ketanserin were dispensed into the reaction plate on wet ice, respectively.
# 2.5 5 mg reduced coenzyme II (Roche, 10621706001) was weighed and dissolved in 1 mL of buffer C. 6 mM reduced coenzyme II solution was obtained. The reduced coenzyme II solution was dispensed into the reaction plate.
# 2.6 Imipramine was dissolved to give a 10 mM solution. 10 μl imipramine solution was added to 100 mL of blank acetonitrile to generate the internal reference.
# 2.7 At 0 min, 135 μL of iced acetonitrile (Merck, UN 1648) containing the internal reference was added to each well and then 15 μL of buffer C was added.
# 2.8 The reaction plate was placed into a 37° C. water bath incubator for 5 min. In the reaction plate, 15 μL of reduced coenzyme II solution was added to each well to initiate the reaction, and the time keeping was started. At the time points of 5, 15, 30, 45, and 60 min, 135 μL of iced acetonitrile containing the internal reference was added to each well to terminate the reaction.
# 2.9 The reaction plate was sealed with an aluminum film, placed on a vibration mixer and shaken at 500 rpm for 5 min. The plate was then centrifuged in a centrifuge at 3750 rp for 15 min.
# 2.10 The sample was diluted with pure water in accordance with the ratio of 1:1 and detected by LC/MS.
# Half-life: 0.693/K (the slope by plotting based on the incubation time and logarithm of the concentration value)
# Clearance ratio: (0.693/half-life)*(1/protein concentration (0.5 mg/mL))*(proportional factor)
# Wherein, the K value and the proportional factor were calculated by those skilled in the art according to the methods described in the prior art and contained in the instructions of the liver microsome product.
row,Structure (SMILES),Clearance ratio (mL/min/kg) mouse [mL/min/kg]
1,CS(=O)(=O)C1(c2cc(-c3cnc(N)cc3C(F)(F)F)nc(N3CCOCC3)n2)CCC1 [Compound S-4],442.63
2,Nc1cc(C(F)(F)F)c(-c2cc(C3(S(=O)(=O)c4ccccc4)CCC3)nc(N3CCOCC3)n2)cn1 [Compound S-20],5641.44
3,"CC(C)(c1cc(-c2cnc(N)cc2Cl)nc(N2CCOCC2)n1)S(C)(=O)=O [Compound S-38, 4-chloro-5-(6-(2-(methylsulfonyl)prop-2-yl)-2-morpholinopyrimidin-4-yl)pyridin-2-amine]",103.77
4,CC(C)(c1cc(-c2cnc(N)nc2C(F)(F)F)nc(N2CCOCC2)n1)S(C)(=O)=O [Compound S-45],89.54
5,CS(=O)(=O)C1(c2cc(-c3cnc(N)nc3C(F)(F)F)nc(N3CCOCC3)n2)CC1 [Compound S-46],100.1
6,CS(=O)(=O)C1(c2cc(-c3cnc(N)cc3F)nc(N3CCOCC3)n2)CC1 [Compound S-82],39.75
